Test results published in patent US11111222B2, “Hydroxyeicosatrienoic acid compounds and their use as therapeutic agents” (THE REGENTS OF THE UNIVERSITY OF MICHIGAN, priority 2016, dated 2021).

Assays:
[1] = tested on: washed platelets from WT or 12-LOX−/− mice; experiment: Platelet aggregation, washed murine platelets (lumi-aggregometer); format: cell-based, mouse; details: 10 min
Experimental: The 12-LOX null C57BL/6 (12-LOX^−/−) mice were generated using homozygous breeding pairs and wild-type (WT) C57BL/6 ([…]) mice were purchased (Jackson Laboratory). […] Mouse blood was diluted with equal volumes of Tyrode's buffer (10 mM HEPES, 11.9 mM sodium bicarbonate, 127.2 mM sodium chloride, 5 mM potassium chloride, 0.4 mM sodium phosphate monobasic, 1 mM magnesium chloride, and 5 mM D-glucose) and centrifuged at 200×g. Platelet-rich-plasma (PRP) was transferred to a tube containing 10× acid citrate dextrose solution (ACD) (2.5% sodium citrate, 1.5% citric acid, and 2% D-glucose) and apyrase (0.02 U/mL), and centrifuged at 2000×g. Platelet count was adjusted to 3×10^8 platelets/mL with Tyrode's buffer for all studies.
A lumi-aggregometer (Chrono-log model 700D) was used to measure platelet aggregation under stirring conditions (1100 rpm) at 37° C. Prior to agonist stimulation platelets were incubated with a preselected PUFA or oxylipin for 10 minutes.

VASP (serine 157) = experiment: VASP phosphorylation in human platelets; format: cell-based; details: 1 min
Experimental: Washed platelets were treated with PUFA or PUFA metabolite (12(S)-HETrE or compound IIc) for one minute, then directly lysed in 5× Laemmeli sample buffer (1.5 M Tris-HCl, pH 6.8, glycerol, 5% β-mercaptoethanol, 10% sodium dodecyl sulfate (SDS), and 1% bromophenol blue). The samples were boiled for five minutes and then run on a 10% SDS-PAGE gel. The levels of total and phospho-VASP (serine 157) were quantified by Western Blot using an Odyssey imaging system (LI-CoR).

adenylyl cyclase = experiment: LC/MS quantification of cAMP in washed human platelets; format: cell-based; details: 25 μM, 1 min; platelets pre-treated with 10 μM IBMX; vs DMSO
Experimental: Washed human platelets were treated with the specific ligand or vehicle control for 1 min at room temperature, and quenched with an equal volume of ice-cold 2× platelet lysis buffer containing protease and phosphatase inhibitors. Lysed platelet samples were centrifuged at 14,000 g for 7 min at 4° C. to pellet cytoskeleton and the supernatant was stored in −80° C.
To prepare the sample for LC/MS injection, 200 μL of the supernatant was spiked with 400 pg of adenosine-3′,5′-cyclic-13C5 monophosphate (^13C5-cAMP) (Toronto Research Chemicals, Inc.), an internal standard, and 600 μL of LC/MS grade acetonitrile (Fisher Scientific). The sample was briefly vortexed and centrifuged at 14,000 rpm for 10 min at 4° C. The supernatants were then air dried in a SpeedVac and reconstituted in 200 μL of LC/MS grade water and centrifuged at 10,000 rpm for 5 min at 4° C. and used for LC/MS injection.
The separation and detection of cAMP was performed on a Waters ACQUITY UPLC system equipped with a Xevo Triple Quadrupole Mass Spectrometer (TQ-S MS/MS). […]
The mass spectrometer was operated with an ESI source in positive mode. […] Cyclic AMP (cAMP) was quantitated using ^13C5-cAMP as the internal standard. […]

Gαs = experiment: [35S]GTPγS binding to immunoprecipitated Gαs, platelet membranes; format: biochemical; details: human platelet membranes, vs DMSO
Experimental: PRP was isolated from whole blood as described above and then incubated with 1 mM aspirin for 1 hour at 37° C. Platelets were pelleted at 2000 g for 10 min in the presence of 10×ACD and apyrase. The pelleted platelets were washed with Tyrode's and centrifuged at 2000×g with 10×ACD for 10 min at room temperature. The platelets were flash frozen with liquid nitrogen and then resuspended in cold detergent-free TME buffer (50 mM Tris-HCl, pH 7.5, 20 mM MgCl2, 2 mM EDTA, and 100 mM NaCl) with 1 μM GDP and protease and phosphatase inhibitors to lyse the platelets. The lysed platelets were centrifuged at 1500 g at 4° C. for 5 min. The supernatant was collected and centrifuged at 100,000×g for 30 min at 4° C. The pelleted membranes were resuspended in TME buffer with 1 μM GDP and stored at −80° C. prior to use. Fatty acid metabolites, agonists, or DMSO and [^35S]GTPγS (10 nM) were added to platelet membranes (60 μg/reaction) on ice, and the tubes were immediately transferred to a 30° C. water bath shaker for 20 min. The reaction was terminated by the addition of ice-cold IP buffer (50 mM Tris-HCl, pH 7.5, 20 mM MgCl2, 150 mM NaCl, 0.5% Nonidet P-40, 0.33% aprotinin, 0.1 mM GDP, and 0.1 mM GTP). The samples were pre-cleared with Protein A agarose beads and normal rabbit IgG for 30 min on a nutator at 4° C. and then aliquoted equally into two tubes containing either normal rabbit IgG or a Gs antibody that had been conjugated to Protein A agarose beads. The samples were incubated on a nutator for 1 hr at 4° C. and washed 4 times with IP buffer and 1 time in TME buffer. The samples were boiled in 0.5% SDS for 30 sec, and the supernatants were collected following brief centrifugation. The supernatants were analyzed in 8 mL of scintillation fluid. The background counts for the normal rabbit IgG (50-200 cpm) for each sample were subtracted from the anti-Gs immunoprecipitated samples prior to analyzing the data.

Tail bleeding assay = format: in vivo, mouse; details: heparin-treated mice; data not shown
Experimental: Mice were anesthetized with ketamine/xyzaline and placed on a heating pad in prone position, the tip of the tail (5 mm) was excised with a sterile scalpel, and the tails were immediately immersed into isotonic saline solution (0.9%) warmed to 37° C. Bleeding time was assessed until cessation of blood flow from the tail for 1 minute.

washed human platelets = experiment: Human platelet aggregation after pre-treatment with adenylyl cyclase inhibitor SQ 22536; format: cell-based; details: platelets pre-treated with SQ 22536 (25 μM, 20 min); iloprost 0.2 to 0.4 nM, 1 min; EC80 PAR4-AP
Experimental: Blood from healthy donors was collected into vacutainers containing buffered sodium citrate, and platelets were isolated by serial centrifugation as described above for mouse platelets. The platelets were resuspended in Tyrode's buffer at 3×10^8 platelets/mL, unless otherwise specified.
A lumi-aggregometer (Chrono-log model 700D) was used to measure platelet aggregation under stirring conditions (1100 rpm) at 37° C. […]

Rap1 = Rap1 activation in washed platelets (Rap1-GTP pull-down, Western blot); format: cell-based, mouse; details: 10 μM DGLA, PAR4-AP 50, 100, 200 μM
Experimental: Following 1 minute of stimulation platelets were lysed with 2× platelet lysis buffer (100 mM Tris HCl, pH 7.4, 150 mM NaCl, 2% IGEPAL, 1% sodium deoxycholate, and 0.05% SDS) containing protease and phosphatase inhibitors. The cytoskeleton was pelleted by centrifugation at 14000×g for 7 minutes at 4° C. Active Rap1 was selectively captured from the supernatant by incubating GST-tagged Rap1 binding domain of RalGDS conjugated to glutathione sepharose beads for one hour on a nutator at 4° C. The beads were then washed 5 times with IP buffer and resuspended in 2× Laemmeli reducing buffer (62.5 mM Tris-HCl, pH 6.8, 2% SDS, 25% glycerol, 0.01% bromophenol blue, 5% β-mercaptoethanol). The samples were boiled for 10 minutes and then loaded onto a 10% SDS-polyacrylamide gel electrophoresis (PAGE) gel. Western blots were performed using a Rap1 antibody and quantified with a LI-COR imager.

[2] = tested on: thrombus formation (platelet and fibrin) in cremaster arterioles; experiment: Laser-induced cremaster arteriole thrombosis model; format: in vivo, mouse; details: vs vehicle
Experimental: Wild type (WT) or 12-LOX^−/− mice (12 weeks of age) were anesthetized by intraperitoneal injection of ketamine/xylazine (100 mg/kg) prior to the exposure of the cremaster muscle arterioles under a dissecting microscope with constant perfusion of preheated bicarbonate-buffered saline (Reheman et al., J Thromb Haemost 3:875-883, 2005; Reheman et al., Blood 113:1809-1817, 2009; Wang et al., J Clin Invest 124:4281-4293, 2014). Anti-platelet (DyLight 488 anti-GPIb, 1 μg/g) and anti-fibrin (Alexa Fluor 647, 0.3 μg/g) antibodies were administered via jugular vein catheter prior to intravital microscopy. DGLA (50 mg/kg) or DMSO (vehicle control) were dissolved in a formulation of 5% DMSO and 45% PEG300 in sterile 1×PBS and then intravenously injected into mice 10 minutes prior to induction of thrombosis. 12(S)-HETrE (6 mg/kg) or equal volume of DMSO (vehicle control) was also intravenously injected into mice 10 minutes prior to induction of thrombosis. Multiple independent thrombi were induced in the arterioles (30-50 μm diameter) in each mouse by a laser ablation system (Ablate! photoablation system; Intelligent Imaging Innovations, Denver, Colo., USA). Images of thrombus formation were acquired in real-time under 63× water-immersion objective with a Zeiss Axio Examiner Z1 fluorescent microscope equipped with solid laser launch system (LaserStack; Intelligent Imaging Innovations) and high-speed sCMOS camera. All captured images were analyzed on Slidebook (Intelligent Imaging Innovations Inc., Denver, Colo., USA).

platelets = details: cited from earlier work
[3] = 12-LOX−/− mouse platelets, 25 μM 12-LOX oxylipin, EC80 PAR4-AP (200 μM) or collagen (2 or 5 μg/mL), vs vehicle
[4] = WT mouse platelets, 25 μM 12-LOX oxylipin, EC80 PAR4-AP (100 μM) or collagen (5 μg/mL), vs vehicle
[5] = 12-LOX−/− mouse platelets, 10 μM PUFA, EC80 PAR4-AP (200 μM) or collagen (2 or 5 μg/mL), vs vehicle
[6] = WT mouse platelets, 10 μM PUFA, EC80 PAR4-AP (100 μM) or collagen (5 μg/mL), vs DMSO
[7] = WT mice, 50 mg/kg i.v. 10 min before laser injury

CCCCC/C=C\CC(O)/C=C/C=C\C/C=C\CCCC(=O)O (centres unmarked) [Compound 12-HETE, 12-hydroxy-5Z,8Z,10E,14Z-eicosatetraenoic]
platelet aggregation [1, 3]: no decrease in collagen- or PAR4-AP-mediated platelet aggregation
platelet aggregation [1, 4]: no decrease in collagen- or PAR4-AP-mediated platelet aggregation

CCCCC/C=C\C/C=C\C/C=C\CCCCCSc1n[nH]c(=O)[nH]1 [Compound IIc, 5-(((6Z,9Z,12Z)-octadeca-6,9,12-trien-1-yl)thio)-2,4-dihydro-3H-1,2,4-triazol-3-one]
VASP phosphorylation (S157) (VASP (serine 157); compound IIc, concentrations not given): dose-dependent phosphorylation of VASP

CCCCC/C=C\CC(/C=C/C=C\CCCCCCC(=O)O)OO (centres unmarked) [Compound 12-HpETrE]
level of intracellular cAMP (adenylyl cyclase): significant increase in the level of intracellular cAMP
VASP phosphorylation (S157) (VASP (serine 157); 25 μM, vs DMSO): enhanced VASP phosphorylation
[35S]GTPγS binding to immunoprecipitated Gαs (Gαs; 25 μM): significant increase in [^35S]GTPγS binding

CC/C=C\C/C=C\CC(O)/C=C/C=C\C/C=C\CCCC(=O)O (centres unmarked) [Compound 12-HEPE, 12-hydroxy-5Z, 8Z, 10E, 14Z, 17Z-eicosapentaenoic acid]
platelet aggregation [1, 3]: did not inhibit collagen- or PAR4-AP-induced aggregation
platelet aggregation [1, 4]: did not inhibit collagen- or PAR4-AP-induced aggregation

heparin
bleeding time (Tail bleeding assay): severe bleeding diathesis

CC#CCC(C)[C@H](O)/C=C/[C@@H]1[C@H]2C/C(=C/CCCC(=O)O)C[C@H]2C[C@H]1O (some centres unmarked) [iloprost]
PAR4-AP-mediated platelet aggregation (washed human platelets): unable to inhibit PAR4-AP-mediated platelet aggregation
[35S]GTPγS binding to immunoprecipitated Gαs (Gαs; iloprost 10 μM): significant increase in [^35S]GTPγS binding

CCCCC/C=C\C/C=C\CCCCCCCC(=O)O [LA, linoleic acid]
platelet aggregation [1, 5]: no inhibitory effect
platelet aggregation [1, 6]: no inhibitory effect

CCCCC/C=C\C/C=C\C/C=C\C/C=C\CCCC(=O)O [AA]
platelet aggregation [1, 5]: no inhibitory effect
platelet aggregation [1, 6]: no inhibitory effect

CCCCC/C=C\C/C=C\C/C=C\CCCCCCC(=O)O [DGLA, Dihomo-γ-linolenic acid]
platelet aggregation [1, 5]: failed to inhibit platelet aggregation
platelet aggregation [1, 6]: significant inhibition of aggregation
Rap1 activation (Rap1-GTP) (Rap1; 12-LOX−/− mouse platelets): unable to inhibit Rap1 activation
Rap1 activation (Rap1-GTP) (Rap1; WT mouse platelets): inhibited Rap1 activation at all concentrations of PAR4-AP tested
fibrin accumulation in thrombi ([2]; 12-LOX−/− mice, 50 mg/kg i.v.): did not differ
platelet accumulation in thrombi ([2]; 12-LOX−/− mice, 50 mg/kg i.v.): did not differ
fibrin accumulation at the site of injury [2, 7]: but not fibrin accumulation
platelet accumulation at the site of injury [2, 7]: significant reduction in platelet
VASP phosphorylation (S157) (VASP (serine 157); DGLA 10 μM, vs DMSO): enhanced VASP phosphorylation
platelet aggregation ex vivo (platelets; literature (Farrow and Willis 1975; Kernoff 1977; Willis 1974)): inhibit platelet aggregation ex vivo
ex vivo aggregation of platelets after dosing (platelets; platelets from humans, baboons, rabbits and rats that received daily oral doses): significant reduction in ex vivo aggregation
